In publication PMC5852967, “Specific features of L-histidine production by Escherichia coli concerned with feedback control of AICAR formation and inorganic phosphate/metal transport” (Microbial Cell Factories, 2018):

What was measured:
Format in all cases: biochemical
[1] = target: T1, HisG^E271K feedback-resistant ATP-phosphoribosyltransferase (Escherichia coli, UniProt P60757, E271K); assay: PR-ATP formation at […] nm with purified enzyme; % inhibition at […]; details: read-out: Inhibition, % / AICAR / 1 mM
T1 construct: His6-tagged HisG^E271K (HT-HisG^E271K)

[2] = target: T2, ATP-phosphoribosyltransferase (ATP-PRT, HisG) (Escherichia coli, UniProt P60757); assay: PR-ATP formation at […] nm with purified enzyme; Lineweaver–Burk plot
T2 construct: N-terminal His6-Tag HisG (HT-HisG)
T2 sequence (P60757 1-299): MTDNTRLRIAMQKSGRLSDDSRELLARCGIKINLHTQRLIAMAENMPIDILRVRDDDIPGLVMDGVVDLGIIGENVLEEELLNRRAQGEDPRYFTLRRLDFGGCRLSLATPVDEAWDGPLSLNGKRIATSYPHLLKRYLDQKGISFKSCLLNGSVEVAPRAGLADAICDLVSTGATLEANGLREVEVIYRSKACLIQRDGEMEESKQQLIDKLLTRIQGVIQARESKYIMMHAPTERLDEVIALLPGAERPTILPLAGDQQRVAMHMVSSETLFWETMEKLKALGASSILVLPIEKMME

[3] = target: T2, ATP-phosphoribosyltransferase (ATP-PRT, HisG); assay: PR-ATP formation at […] nm from ATP and PRPP with purified enzyme

Row | SMILES | inhibition at 1000 µM [1] | Ki [2] | PR-ATP formation at 290 nm from ATP and PRPP with purified enzyme [3]
1 | NC(=O)c1ncn([C@@H]2O[C@H](COP(=O)(O)O)[C@@H](O)[C@H]2O)c1N [AICAR, 5-aminoimidazole-4-carboxamide-1-beta-D-ribofuranosyl 5′-monophosphate] | 52% | 0.65 mM | 
2 | Nc1ncnc2c1ncn2[C@@H]1O[C@H](COP(=O)(O)O)[C@@H](O)[C@H]1O [AMP] |  | 2.15 mM | 
3 | Nc1ncnc2c1ncn2[C@@H]1O[C@H](COP(=O)(O)OP(=O)(O)OP(=O)(O)O)[C@@H](O)[C@H]1O [ATP] |  |  | Both tested substances compete with ATP in HisG-catalyzed reactions
